Experimental data: patent US11959083B2, “Immunosuppression-reverting oligonucleotides inhibiting the expression of CD39” (Secarna Pharmaceuticals GmbH & Co. KG, priority 2016, dated 2024)
l = locked nucleic acid (LNA); d = 2'-deoxy (DNA)

How the values were obtained:
Format in all cases: cell-based, human
[1] = test system: hCD39 mRNA; assay: hCD39 mRNA knockdown efficacy screen in A-172 cells (single dose, gymnotic delivery, QuantiGene Singleplex); settings: 10 μM, 3 days; for Mean hCD39 mRNA expression (relative to untreated cells set as 1): first screening round; for Mean hCD39 mRNA expression (relative to untreated cells set as 1) / Relative hCD39 mRNA expression (compared to non-treated cells): normalized to HPRT1; for Relative hCD39 mRNA expression (compared to non-treated cells): second screening round; for Residual hCD39 mRNA expression relative to untreated cells (set as 1): third screening round
Method in brief: (§1)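 Antisense oligonucleotides given once at 10 μM without transfection reagent (gymnotic) to HDLM-2 or A-172 cells for 3 days. hCD39 mRNA measured by QuantiGene Singleplex, normalized to HPRT1 and expressed relative to untreated cells; triplicate means.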

[2] = test system: hCD39 mRNA; assay: IC50 determination / concentration-dependent hCD39 mRNA knockdown in HDLM-2 cells; settings: for mRNA inhibition: HDLM-2, 3 days; for IC50: HDLM-2 cells, hCD39 mRNA, 3 days
Experimental: HDLM-2 cells were treated for 3 days with the indicated concentration of the respective antisense oligonucleotide. Residual hCD39 expression is depicted compared to untreated control cells. hCD39 mRNA expression values were normalized to expression of the housekeeping gene HPRT1.
The antisense oligonucleotide A04040H (SEQ ID No. 3) that had shown potent activity in the first and second screening round was used as reference. HDLM-2 cells treated for 3 days with the indicated concentrations of the respective antisense oligonucleotide. hCD39 mRNA expression values were normalized to expression of the housekeeping gene HPRT1. Residual hCD39 mRNA expression relative to untreated cells (set as 100) is depicted. Depicted is the mean of triplicate wells+/−SD.
In a second experiment the concentration-dependency of effects and the IC50 values of hCD39 antisense oligonucleotides A04010H (SEQ ID No.14), A04016H (SEQ ID No.20), A04017H (SEQ ID No.21), A04020H (SEQ ID No. 24) and A04026H (SEQ ID No.30) were tested. […] HDLM-2 cells were treated with titrated amounts of the respective antisense oligonucleotide (concentrations: 10 μM, 3.3 μM, 1.1 μM, 370 nM, 120 nM, 41 nM, 14 nM, 4.5 nM). hCD39 mRNA expression was analyzed after three days of treatment. FIG. 5 and Table 9 depicts the concentration-dependent reduction of hCD39 mRNA expression by the selected hCD39 antisense oligonucleotides.
The hCD39 antisense oligonucleotides A04051H (SEQ ID No.88), A04052H (SEQ ID No.89), A04053H ([…]), A04056H (SEQ ID No.92), A04059H (SEQ ID No.94), A04060H (SEQ ID No.95), and A04061H (SEQ ID No.96) had shown potent single-dose activity in both HDLM-2 and A-172 cells. […] The antisense oligonucleotide A04040H that had shown potent activity in the first screening round was used as reference. hCD39 mRNA expression was analyzed after 3 days of treatment. FIG. 7 depicts the concentration-dependent reduction of hCD39 expression by hCD39 antisense oligonucleotides.

[3] = test system: hCD39 mRNA; assay: hCD39 mRNA knockdown efficacy screen in HDLM-2 cells (single dose, gymnotic delivery, QuantiGene Singleplex); design: key to Relative hCD39 mRNA expression (compared to non-treated cells): *: values are below detection limit; settings: 10 μM, 3 days; for Mean hCD39 mRNA expression normalized to HPRT1 relative to untreated control = 1: first screening round; for Relative hCD39 mRNA expression (compared to non-treated cells): second screening round, normalized to HPRT1; for Residual hCD39 mRNA expression relative to untreated cells (set as 1): third screening round
Method in brief: as §1

[4] = first screening round (Table 8)
[5] = second screening round (Table 9)
[6] = third screening round (Table 12)

Substance	Mean hCD39 mRNA expression (relative to untreated cells set as 1) [1]	Relative hCD39 mRNA expression (compared to non-treated cells) [1]	mRNA inhibition ([2]; 0.0045 μM, Table 8)	mRNA inhibition ([2]; 0.013 μM, Table 8)	mRNA inhibition ([2]; 0.04 μM, Table 8)	mRNA inhibition ([2]; 0.12 μM, Table 8)	mRNA inhibition ([2]; 0.4 μM, Table 8)	mRNA inhibition ([2]; 1.1 μM, Table 8)	mRNA inhibition ([2]; 3.3 μM, Table 8)	mRNA inhibition ([2]; 10 μM, Table 8)	IC50 [2, 4]	Mean hCD39 mRNA expression normalized to HPRT1 relative to untreated control = 1 [3]	Relative hCD39 mRNA expression (compared to non-treated cells) [3]	Residual hCD39 mRNA expression relative to untreated cells (set as 1) [1]	mRNA inhibition ([2]; 4 nM, Table 12)	mRNA inhibition ([2]; 12 nM, Table 12)	mRNA inhibition ([2]; 40 nM, Table 12)	mRNA inhibition ([2]; 110 nM, Table 12)	mRNA inhibition ([2]; 330 nM, Table 12)	Residual hCD39 mRNA expression relative to untreated cells (set as 1) [3]	also measured
+C*+A*+G*T*C*A*A*T*C*C*T*G*C*+T*+C*+A (antisense CAGTCAATCCTGCTCA; sugars from the 5' end l3 d10 l3, all phosphorothioate, methylation of C not given here) [A04039H]	0.27	0.14	11.56%	14.30%	20.47%	44.03%	71.25%	85.22%	92.53%	96.54%	177 nM	0.06	*	–	–	–	–	–	–	–	–
+G*+A*G*T*G*C*C*T*G*A*T*C*C*+T*+T (antisense GAGTGCCTGATCCTT; sugars from the 5' end l2 d11 l2, all phosphorothioate, methylation of C not given here) [A04010H]	0.10	0.11	–	–	–	–	–	–	–	–	–	0.17	0.15	–	–	–	–	–	–	–	mRNA inhibition ([2]; 0.0045 μM, Table 9): 20.11%; mRNA inhibition ([2]; 0.013 μM, Table 9): 24.68%; mRNA inhibition ([2]; 0.04 μM, Table 9): 52.80%; mRNA inhibition ([2]; 0.12 μM, Table 9): 76.16%; mRNA inhibition ([2]; 0.4 μM, Table 9): 90.86%; mRNA inhibition ([2]; 1.1 μM, Table 9): 95.99%; mRNA inhibition ([2]; 3.3 μM, Table 9): 98.10%; mRNA inhibition ([2]; 10 μM, Table 9): 98.77%; IC50 [2, 5]: 51.6 nM
+A*+C*C*C*T*G*A*G*T*T*G*T*A*A*C*+T (antisense ACCCTGAGTTGTAACT; sugars from the 5' end l2 d13 l1, all phosphorothioate, methylation of C not given here) [A04033H]	0.28	0.14	3.05%	−3.30%	24.10%	46.98%	70.74%	83.81%	92.79%	98.02%	119 nM	0.10	*	–	–	–	–	–	–	–	–
+T*+T*+A*C*G*T*T*C*A*C*T*A*C*C*+T*+T*+C (antisense TTACGTTCACTACCTTC; sugars from the 5' end l3 d11 l3, all phosphorothioate, methylation of C not given here) [A04044H]	0.07	0.04	12.17%	26.25%	45.88%	68.28%	82.63%	91.19%	96.20%	98.71%	46.3 nM	0.05	*	–	–	–	–	–	–	–	–
+T*+A*+C*G*T*T*C*A*C*T*A*C*C*T*+T*+C*+T (antisense TACGTTCACTACCTTCT; sugars from the 5' end l3 d11 l3, all phosphorothioate, methylation of C not given here) [A04052H]	–	–	–	–	–	–	–	–	–	–	–	–	–	0.25	9.03%	31.25%	49.21%	75.30%	88.35%	0.00	mRNA inhibition ([2]; 0.45 nM, Table 12): 24.52%; mRNA inhibition ([2]; 1.3 nM, Table 12): 25.80%; mRNA inhibition ([2]; 1000 nM, Table 12): 94.72%; IC50 [2, 6]: 54 nM
+T*+G*+C*C*A*G*A*G*T*G*C*C*T*G*+A*+T*+C (antisense TGCCAGAGTGCCTGATC; sugars from the 5' end l3 d11 l3, all phosphorothioate, methylation of C not given here) [A04042H]	0.37	0.19	−20.02%	−2.65%	22.51%	32.44%	58.07%	76.38%	87.12%	95.87%	60.9 nM	0.10	*	0.00	–	–	–	–	–	0.09	–
+G*+T*+T*T*G*T*G*T*G*A*G*A*G*C*+T*+T*+T (antisense GTTTGTGTGAGAGCTTT; sugars from the 5' end l3 d11 l3, all phosphorothioate, methylation of C not given here) [A04056H]	–	–	–	–	–	–	–	–	–	–	–	–	–	0.09	13.97%	37.12%	69.95%	91.83%	97.52%	0.01	mRNA inhibition ([2]; 1000 nM, Table 12): 98.49%; IC50 [2, 6]: 20.2 nM
+T*+A*+T*G*G*T*A*C*A*G*T*+T*G*+G*+T (antisense TATGGTACAGTTGGT; sugars from the 5' end l3 d8 l1 d1 l2, all phosphorothioate, methylation of C not given here) [A04020H]	0.03	0.04	–	–	–	–	–	–	–	–	–	0.08	0.08	–	–	–	–	–	–	–	mRNA inhibition ([2]; 0.0045 μM, Table 9): 23.58%; mRNA inhibition ([2]; 0.013 μM, Table 9): 68.27%; mRNA inhibition ([2]; 0.04 μM, Table 9): 94.26%; mRNA inhibition ([2]; 0.12 μM, Table 9): 98.89%; mRNA inhibition ([2]; 0.4 μM, Table 9): 99.42%; mRNA inhibition ([2]; 1.1 μM, Table 9): 99.61%; mRNA inhibition ([2]; 3.3 μM, Table 9): 99.55%; mRNA inhibition ([2]; 10 μM, Table 9): 99.41%; IC50 [2, 5]: 10.1 nM
+T*+A*+C*G*T*T*C*A*C*T*A*C*C*T*+T*C*+T (antisense TACGTTCACTACCTTCT; sugars from the 5' end l3 d11 l1 d1 l1, all phosphorothioate, methylation of C not given here) [A04053H]	–	–	–	–	–	–	–	–	–	–	–	–	–	0.31	9.81%	26.67%	37.75%	66.64%	85.19%	0.01	mRNA inhibition ([2]; 0.45 nM, Table 12): 2.07%; mRNA inhibition ([2]; 1.3 nM, Table 12): 17.51%; mRNA inhibition ([2]; 1000 nM, Table 12): 92.69%; IC50 [2, 6]: 67.6 nM
